{
  "source": "ChEMBL document CHEMBL4715911",
  "about": "“Quest for a potent antimalarial drug lead: Synthesis and evaluation of 6,7-dimethoxyquinazoline-2,4-diamines” (Bioorg Med Chem, 2021)",
  "assay_type_in_all_cases": "functional",
  "key": {"[1]": {"test_system": "Plasmodium berghei", "test": "Antimalarial activity against Plasmodium berghei NK65 infected in ICR mouse assessed as mean survival days at 54.7 mg/kg, po for 4 days (reference value: 6.2 day)", "conditions": "time 4 day"}, "[2]": {"test_system": "Plasmodium berghei", "test": "Antimalarial activity against Plasmodium berghei NK65 infected in ICR mouse assessed as reduction in parasitemia at 54.7 mg/kg, po qd for 4 days by Diff-Quik staining based microscopic method (reference value: 0%)", "conditions": "96 h, time 4 day"}, "[3]": {"test_system": "Plasmodium berghei", "test": "Antimalarial activity against Plasmodium berghei NK65 infected in ICR mouse assessed as animal mean survival days at 57.2 mg/kg, po qd for 4 days (reference value: 6.2 +/- 0.5 day)", "conditions": "time 4 day"}, "[4]": {"test_system": "Plasmodium berghei", "test": "Antimalarial activity against Plasmodium berghei NK65 infected in ICR mouse assessed as reduction in parasitemia at 114.4 mg/kg, po qd for 4 days by Diff-Quik staining based microscopic method (reference value: 0%)", "conditions": "96 h, time 4 day"}, "[5]": {"test_system": "Plasmodium berghei", "test": "Antimalarial activity against Plasmodium berghei NK65 infected in ICR mouse assessed as parasitemia at 114.4 mg/kg, po qd for 4 days by Diff-Quik staining based microscopic method (reference value: 28.4 +/- 10.2%)", "conditions": "time 4 day"}, "[6]": {"test_system": "Plasmodium berghei", "test": "Antimalarial activity against Plasmodium berghei NK65 infected in ICR mouse assessed as reduction in parasitemia at 57.2 mg/kg, po qd for 4 days by Diff-Quik staining based microscopic method (reference value: 0%)", "conditions": "96 h, time 4 day"}, "[7]": {"test_system": "Plasmodium berghei", "test": "Antimalarial activity against Plasmodium berghei NK65 infected in ICR mouse assessed as parasitemia at 57.2 mg/kg, po qd for 4 days by Diff-Quik staining based microscopic method (reference value: 28.4 +/- 10.2%)", "conditions": "time 4 day"}, "[8]": {"test_system": "Plasmodium berghei", "test": "Antimalarial activity against Plasmodium berghei NK65 infected in ICR mouse assessed as animal mean survival days at 114.4 mg/kg, po qd for 4 days (reference value: 6.2 +/- 0.5 day)", "conditions": "time 4 day"}, "[9]": {"test_system": "Plasmodium berghei", "test": "Antimalarial activity against Plasmodium berghei NK65 infected in ICR mouse assessed as animal mean survival days at 58.2 mg/kg, po qd for 4 days (reference value: 6.2 +/-0.5 day)", "conditions": "time 4 day"}, "[10]": {"test_system": "Plasmodium berghei", "test": "Antimalarial activity against Plasmodium berghei NK65 infected in ICR mouse assessed as parasitemia at 58.2 mg/kg, po qd for 4 days by Diff-Quik staining based microscopic method (reference value: 28.4 +/- 10.2%)", "conditions": "time 4 day"}, "[11]": {"test_system": "Plasmodium berghei", "test": "Antimalarial activity against Plasmodium berghei NK65 infected in ICR mouse assessed as reduction in parasitemia at 116.4 mg/kg, po qd for 4 days by Diff-Quik staining based microscopic method (reference value: 0%)", "conditions": "96 h, time 4 day"}, "[12]": {"test_system": "Plasmodium berghei", "test": "Antimalarial activity against Plasmodium berghei NK65 infected in ICR mouse assessed as reduction in parasitemia at 58.2 mg/kg, po qd for 4 days by Diff-Quik staining based microscopic method (reference value: 0%)", "conditions": "96 h, time 4 day"}, "[13]": {"test_system": "Plasmodium berghei", "test": "Antimalarial activity against Plasmodium berghei NK65 infected in ICR mouse assessed as animal mean survival days at 116.4 mg/kg, po qd for 4 days (reference value: 6.2 +/- 0.5 day)", "conditions": "time 4 day"}, "[14]": {"test_system": "Plasmodium berghei", "test": "Antimalarial activity against Plasmodium berghei NK65 infected in ICR mouse assessed as parasitemia at 116.4 mg/kg, po qd for 4 days by Diff-Quik staining based microscopic method (reference value: 28.4 +/- 10.2%)", "conditions": "time 4 day"}, "[15]": {"test_system": "Plasmodium berghei", "test": "Antimalarial activity against Plasmodium berghei NK65 infected in ICR mouse assessed as animal mean survival days at 57.5 mg/kg, po qd for 4 days (reference value: 6.2 +/-0.5 day)", "conditions": "time 4 day"}, "[16]": {"test_system": "Plasmodium berghei", "test": "Antimalarial activity against Plasmodium berghei NK65 infected in ICR mouse assessed as parasitemia at 57.5 mg/kg, po qd for 4 days by Diff-Quik staining based microscopic method (reference value: 28.4 +/- 10.2%)", "conditions": "time 4 day"}, "[17]": {"test_system": "Plasmodium berghei", "test": "Antimalarial activity against Plasmodium berghei NK65 infected in ICR mouse assessed as reduction in parasitemia at 115 mg/kg, po qd for 4 days by Diff-Quik staining based microscopic method (reference value: 0%)", "conditions": "96 h, time 4 day"}, "[18]": {"test_system": "Plasmodium berghei", "test": "Antimalarial activity against Plasmodium berghei NK65 infected in ICR mouse assessed as parasitemia at 115 mg/kg, po qd for 4 days by Diff-Quik staining based microscopic method (reference value: 28.4 +/- 10.2%)", "conditions": "time 4 day"}, "[19]": {"test_system": "Plasmodium berghei", "test": "Antimalarial activity against Plasmodium berghei NK65 infected in ICR mouse assessed as animal mean survival days at 115 mg/kg, po qd for 4 days (reference value: 6.2 +/- 0.5 day)", "conditions": "time 4 day"}, "[20]": {"test_system": "Plasmodium berghei", "test": "Antimalarial activity against Plasmodium berghei NK65 infected in ICR mouse assessed as reduction in parasitemia at 57.5 mg/kg, po qd for 4 days by Diff-Quik staining based microscopic method (reference value: 0%)", "conditions": "96 h, time 4 day"}},
  "data": [
    {"smiles": "COc1cc2nc(Nc3ccncc3)nc(Nc3ccccc3C)c2cc1OC.Cl", "values": [
      {"measurement": "MSD", "setting": "[1]", "value": 7.3, "unit": "days"},
      {"measurement": "inhibition in vivo at 54.7 mg/kg", "setting": "[2]", "value": 60.8, "unit": "%"}
    ]},
    {"smiles": "COc1cc2nc(N3CCCC3)nc(NC(C)c3ccccc3)c2cc1OC.Cl", "note": "(stereo not given)", "values": [
      {"measurement": "MSD", "setting": "[3]", "value": 12, "unit": "days"},
      {"measurement": "inhibition in vivo at 114.4 mg/kg", "setting": "[4]", "value": "> 99", "unit": "%"},
      {"measurement": "Activity", "setting": "[5]", "value": 0, "unit": "%"},
      {"measurement": "inhibition in vivo at 57.2 mg/kg", "setting": "[6]", "value": 92.1, "unit": "%"},
      {"measurement": "Activity", "setting": "[7]", "value": 2, "unit": "%"},
      {"measurement": "MSD", "setting": "[8]", "value": 28.2, "unit": "days"}
    ]},
    {"smiles": "CCCCNc1nc(N2CCCC2)nc2cc(OC)c(OC)cc12.Cl", "values": [
      {"measurement": "MSD", "setting": "[9]", "value": 17.5, "unit": "days"},
      {"measurement": "Activity", "setting": "[10]", "value": 1.5, "unit": "%"},
      {"measurement": "inhibition in vivo at 116.4 mg/kg", "setting": "[11]", "value": "> 99", "unit": "%"},
      {"measurement": "inhibition in vivo at 58.2 mg/kg", "setting": "[12]", "value": 95.5, "unit": "%"},
      {"measurement": "MSD", "setting": "[13]", "value": 11.6, "unit": "days"},
      {"measurement": "Activity", "setting": "[14]", "value": 0, "unit": "%"}
    ]},
    {"smiles": "COc1cc2nc(N3CCCC3)nc(Nc3ccccc3C)c2cc1OC.Cl", "values": [
      {"measurement": "MSD", "setting": "[15]", "value": 7, "unit": "days"},
      {"measurement": "Activity", "setting": "[16]", "value": 14.7, "unit": "%"},
      {"measurement": "inhibition in vivo at 115 mg/kg", "setting": "[17]", "value": 63.8, "unit": "%"},
      {"measurement": "Activity", "setting": "[18]", "value": 11.6, "unit": "%"},
      {"measurement": "MSD", "setting": "[19]", "value": 14.5, "unit": "days"},
      {"measurement": "inhibition in vivo at 57.5 mg/kg", "setting": "[20]", "value": 53.9, "unit": "%"}
    ]}
  ]
}
